Experimental data taken from ChEMBL document CHEMBL4613287, “Glycomimetic Based Approach toward Selective Carbonic Anhydrase Inhibitors” (ACS Med Chem Lett, 2020).

Tests used:
Carbonic anhydrase 1 = Carbonic anhydrase 1 (Homo sapiens, UniProt P00915); experiment: Inhibition of recombinant human carbonic anhydrase 1 preincubated with enzyme for 15 mins by phenol red dye based stopped flow CO2 hydration assay
Carbonic anhydrase 2 = Carbonic anhydrase 2 (Homo sapiens, UniProt P00918); experiment: Inhibition of recombinant human carbonic anhydrase 2 preincubated with enzyme for 15 mins by phenol red dye based stopped flow CO2 hydration assay
Carbonic anhydrase 7 = Carbonic anhydrase 7 (Homo sapiens, UniProt P43166); experiment: Inhibition of recombinant human carbonic anhydrase 7 preincubated with enzyme for 15 mins by phenol red dye based stopped flow CO2 hydration assay
Carbonic anhydrase 9 = Carbonic anhydrase 9 (Homo sapiens, UniProt Q16790); experiment: Inhibition of recombinant human carbonic anhydrase 9 preincubated with enzyme for 15 mins by phenol red dye based stopped flow CO2 hydration assay
Carbonic anhydrase 12 = Carbonic anhydrase 12 (Homo sapiens, UniProt O43570); experiment: Inhibition of recombinant human carbonic anhydrase 12 preincubated with enzyme for 15 mins by phenol red dye based stopped flow CO2 hydration assay
Carbonic anhydrase 12, sequence (O43570 whole entry): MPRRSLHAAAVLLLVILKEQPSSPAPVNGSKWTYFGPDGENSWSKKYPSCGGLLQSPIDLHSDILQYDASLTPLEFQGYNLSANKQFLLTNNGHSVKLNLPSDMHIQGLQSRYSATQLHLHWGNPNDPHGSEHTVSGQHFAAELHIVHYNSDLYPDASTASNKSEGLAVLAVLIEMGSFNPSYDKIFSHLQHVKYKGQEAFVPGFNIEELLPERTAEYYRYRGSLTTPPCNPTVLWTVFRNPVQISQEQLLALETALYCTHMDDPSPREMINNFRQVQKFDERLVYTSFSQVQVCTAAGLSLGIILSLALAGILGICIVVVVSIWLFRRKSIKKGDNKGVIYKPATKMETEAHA

Carbonic anhydrase 7, sequence (P43166 whole entry): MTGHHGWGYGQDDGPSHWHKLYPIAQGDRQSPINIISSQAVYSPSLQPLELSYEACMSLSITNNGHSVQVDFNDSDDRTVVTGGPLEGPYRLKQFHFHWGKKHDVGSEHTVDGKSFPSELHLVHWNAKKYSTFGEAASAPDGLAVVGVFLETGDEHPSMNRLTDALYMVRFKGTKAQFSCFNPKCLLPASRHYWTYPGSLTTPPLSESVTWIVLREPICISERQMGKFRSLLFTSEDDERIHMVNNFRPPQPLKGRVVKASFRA
Carbonic anhydrase 1, sequence (P00915 whole entry): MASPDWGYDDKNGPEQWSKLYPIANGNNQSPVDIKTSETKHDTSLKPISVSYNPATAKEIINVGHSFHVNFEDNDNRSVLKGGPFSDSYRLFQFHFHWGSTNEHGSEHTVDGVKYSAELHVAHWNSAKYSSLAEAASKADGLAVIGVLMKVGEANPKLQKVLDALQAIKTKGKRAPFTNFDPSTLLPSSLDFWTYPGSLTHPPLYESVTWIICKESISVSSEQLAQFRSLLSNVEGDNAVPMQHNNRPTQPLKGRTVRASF

| Structure (SMILES) | Ki (Carbonic anhydrase 1) [nM] | Ki (Carbonic anhydrase 2) [nM] | Ki (Carbonic anhydrase 7) [nM] | Ki (Carbonic anhydrase 9) [nM] | Ki (Carbonic anhydrase 12) [nM] |
| --- | --- | --- | --- | --- | --- |
| CC1(C)O[C@H]2[C@H](O)CN(CCCCCCn3cc(CNc4ccc(S(N)(=O)=O)cc4)nn3)C[C@H]2O1 | 2880 | 80.3 | 7.4 | 2980 | 541 |
| CC1(C)O[C@H]2[C@H](O)[C@H]([C@H]3[C@H](O)[C@H]4OC[C@@H](O4)[C@H]3O)N(CCCCCCn3cc(CNc4ccc(S(N)(=O)=O)cc4)nn3)C[C@H]2O1 | 956 | 801 | 31.2 | 35.9 | 770 |
